The target in series [1] is Cathepsin K (Homo sapiens, UniProt P43235). Briefly: Inhibition of humanized-rabbit Cathepsin K.
The species entered for the next series is Homo sapiens. In words: Selectivity ratio of IC50 for Cathepsin F (unknown origin) to IC50 for Cathepsin K (unknown origin).
Series [2] is described as follows: Intrinsic clearance in rat liver microsomes. The class given is ADME, Microsome. The note with it: read-out: CLH.
Series [3] addresses T1, Cathepsin K (Homo sapiens, UniProt P43235).
T1 sequence (P43235 whole entry): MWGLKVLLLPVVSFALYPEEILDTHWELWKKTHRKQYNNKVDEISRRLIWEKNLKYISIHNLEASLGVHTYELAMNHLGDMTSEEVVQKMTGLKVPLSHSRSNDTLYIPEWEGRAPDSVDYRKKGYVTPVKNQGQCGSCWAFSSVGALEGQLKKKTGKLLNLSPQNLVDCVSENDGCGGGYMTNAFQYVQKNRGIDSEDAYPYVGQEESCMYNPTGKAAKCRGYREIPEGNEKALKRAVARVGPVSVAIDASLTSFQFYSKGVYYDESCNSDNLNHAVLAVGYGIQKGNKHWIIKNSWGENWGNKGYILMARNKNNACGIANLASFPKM
In words: Inhibition of human Cathepsin K.

Series [4] in a line: Oral bioavailability in rat. To be noted: in vivo. The class given is ADME, organism-based.
Series [5] can be described thus: Oral bioavailability in dog. The class given is ADME, organism-based, Canis lupus familiaris. To be noted: in vivo.
A short description of series [6]: Unbound plasma concentration in dog at 15 mg/kg, po for 4 days. The format is ADME, organism-based, Canis lupus familiaris. The note with it: in vivo, 96 h, time 4 day.
Series [7] concerns Canis familiaris. In words: Anti-osteoarthritic activity in dog assessed as reduction in uCTX-1 level at 15 mg/kg, po for 4 days (reference value: 26.9%). The format is functional. The note with it: Canis lupus familiaris, 96 h, time 4 day.
A short description of series [8]: Clearance in dog. The format is ADME, Canis lupus familiaris. To be noted: in vivo.
The nature of series [9]: Half life in dog. The format is ADME, Canis lupus familiaris. The note with it: in vivo.
Series [10] in a line: Clearance in rat. The format is ADME. To be noted: in vivo.
The target of series [11] is Cathepsin (S and K) (Homo sapiens) (UniProt P25774+P43235). In words: Selectivity ratio of IC50 for Cathepsin S (unknown origin) to IC50 for Cathepsin K (unknown origin). The format is protein assay.
The test system of series [12] is Canis familiaris. Briefly: Anti-osteoarthritic activity in dog assessed as reduction in uCTX-1 level at 0.1 mg/kg, po for 4 days (reference value: 26.9%). The format is functional. To be noted: Canis lupus familiaris, 96 h, time 4 day.
Series [13] is described as follows: Drug concentration in dog cartilage at 15 mg/kg, po for 4 days. The class given is ADME, organism-based, Canis lupus familiaris, Cartilage tissue. The note with it: time 4 day, read-out: Ct.
Series [14] is described as follows: Half life in rat. The class given is ADME. To be noted: in vivo.
Series [15] in a line: Clearance in rhesus monkey. The class given is ADME, Macaca mulatta. To be noted: in vivo.
A short description of series [16]: Plasma protein binding in dog assessed as unbound fraction at 15 mg/kg, po for 4 days. The class given is ADME, organism-based, Canis lupus familiaris. To be noted: time 4 day.
Series [17] concerns Canis familiaris. In words: Anti-osteoarthritic activity in dog assessed as reduction in uCTX-1 level at 0.3 mg/kg, po for 4 days (reference value: 26.9%). The class given is functional. To be noted: Canis lupus familiaris, 96 h, time 4 day.
The nature of series [18]: Plasma concentration in dog at 15 mg/kg, po for 4 days. The format is ADME, organism-based, Canis lupus familiaris. To be noted: time 4 day.
In series [19] the test system is Canis familiaris. In words: Anti-osteoarthritic activity in dog assessed as reduction in uCTX-1 level at 0.03 mg/kg, po for 4 days (reference value: 26.9%). The format is functional. To be noted: Canis lupus familiaris, 96 h, time 4 day.
The target in series [20] is Cathepsin (B and K) (Homo sapiens) (UniProt P43235+P07858). In words: Selectivity ratio of IC50 for Cathepsin B (unknown origin) to IC50 for Cathepsin K (unknown origin). The class given is protein assay.
Series [21] can be described thus: Oral bioavailability in rhesus monkey. The format is ADME, organism-based, Macaca mulatta. The note with it: in vivo.
A short description of series [22]: Unbound drug concentration in dog cartilage at 15 mg/kg, po for 4 days. The class given is ADME, organism-based, Canis lupus familiaris, Cartilage tissue. The note with it: in vivo, 96 h, time 4 day.
The nature of series [23]: Half life in rhesus monkey. The note with it: in vivo. The class given is ADME, Macaca mulatta.
The target of series [24] is Cathepsin (V and K) (Homo sapiens) (UniProt P43235+O60911). In words: Selectivity ratio of IC50 for Cathepsin V (unknown origin) to IC50 for Cathepsin K (unknown origin). The class given is protein assay.
Series [25] deals with Cathepsin (L and K) (Homo sapiens) (UniProt P43235+P07711). Briefly: Selectivity ratio of IC50 for Cathepsin L (unknown origin) to IC50 for Cathepsin K (unknown origin). The format is protein assay.

Here are results for 13 molecules from ChEMBL document CHEMBL5104166, “Lead optimization of cathepsin K inhibitors for the treatment of Osteoarthritis” (Bioorg Med Chem Lett, 2022).

As a reminder, the IC50 is the point on the concentration scale where inhibition reaches its midpoint. The bioavailability is dose-corrected exposure relative to a reference, in per cent. For orientation: inhibition in vivo means the relative decrease from the control value, in per cent. The clearance is a measure of how efficiently the substance is removed, as volume per time. Broadly, the half-life is how long it takes for the measured level to halve. Usually fraction unbound stands for free concentration divided by total concentration.

A value given as a limit tells only on which side of the number the result lay.

Sequence of Cathepsin (L and K) (Homo sapiens) (P07711 whole entry, looked up, one chain of several): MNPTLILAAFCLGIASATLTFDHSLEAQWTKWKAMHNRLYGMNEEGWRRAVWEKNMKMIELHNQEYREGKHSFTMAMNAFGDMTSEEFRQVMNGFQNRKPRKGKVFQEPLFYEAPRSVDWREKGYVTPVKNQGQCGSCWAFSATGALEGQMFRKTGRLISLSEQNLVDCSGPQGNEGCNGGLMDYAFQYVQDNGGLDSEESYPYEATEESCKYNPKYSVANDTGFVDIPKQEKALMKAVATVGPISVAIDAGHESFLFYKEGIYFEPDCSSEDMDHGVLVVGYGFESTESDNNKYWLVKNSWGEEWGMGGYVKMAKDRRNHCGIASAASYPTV
Sequence of Cathepsin (V and K) (Homo sapiens) (O60911 whole entry, looked up, one chain of several): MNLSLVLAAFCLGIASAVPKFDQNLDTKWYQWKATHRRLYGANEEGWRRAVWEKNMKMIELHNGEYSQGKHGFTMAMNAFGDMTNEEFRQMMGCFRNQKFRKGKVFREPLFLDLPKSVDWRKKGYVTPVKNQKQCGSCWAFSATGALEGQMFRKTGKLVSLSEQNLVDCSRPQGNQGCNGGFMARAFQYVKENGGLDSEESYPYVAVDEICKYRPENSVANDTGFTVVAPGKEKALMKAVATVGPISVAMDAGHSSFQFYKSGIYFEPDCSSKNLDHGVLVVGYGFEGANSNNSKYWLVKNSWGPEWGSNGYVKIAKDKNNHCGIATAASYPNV
Sequence of Cathepsin (S and K) (Homo sapiens) (P25774 whole entry, looked up, one chain of several): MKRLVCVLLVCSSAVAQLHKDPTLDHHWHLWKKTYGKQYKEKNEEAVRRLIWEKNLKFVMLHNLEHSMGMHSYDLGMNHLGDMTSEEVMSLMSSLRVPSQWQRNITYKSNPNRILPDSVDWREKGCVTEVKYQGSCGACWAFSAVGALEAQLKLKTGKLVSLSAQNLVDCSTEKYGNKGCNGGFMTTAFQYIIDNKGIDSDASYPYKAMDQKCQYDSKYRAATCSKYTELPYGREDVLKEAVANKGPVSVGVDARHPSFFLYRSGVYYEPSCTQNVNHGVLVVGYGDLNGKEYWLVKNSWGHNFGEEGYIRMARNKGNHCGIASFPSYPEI

Molecule `CS(=O)(=O)N1CC(c2ccc(-c3cn(CC(F)(F)F)nc3[C@@H]3CCC(F)(F)C[C@H]3C(=O)NC3(C#N)CC3)cc2)C1` came in with an IC50 on Cathepsin K [1] of 0.6 nM. Also, in the series filed under Homo sapiens, the Ratio IC50 was 82.
Turning to `N#CC1(NC(=O)[C@@H]2CCCC[C@H]2c2nc(-c3ccc(F)cc3)sc2-c2ccc(N3CCS(=O)(=O)CC3)cc2)CC1`, in [2], the CLint scaled was 55.9 mL/min/kg. It took 0.6 nM to reach half-maximal inhibition against Cathepsin K [3] (IC50). In addition, the Ratio IC50 in the series filed under Homo sapiens was 1430.
As to `N#CC1(NC(=O)[C@@H]2CC(F)(F)CC[C@H]2c2nn(-c3ccc(F)cc3)cc2-c2ccc(N3CCS(=O)(=O)CC3)cc2)CC1`, the CLint scaled in series [2] is < 30 mL/min/kg. The same molecule showed an IC50 against Cathepsin K [1] of 0.5 nM. For the same molecule, the Ratio IC50 in the series filed under Homo sapiens stood at 50.
`N#CC1(NC(=O)[C@@H]2CC(F)(F)CC[C@H]2c2nn(CC(F)(F)F)cc2-c2ccc(N3CCS(=O)(=O)CC3)cc2)CC1` yielded an IC50 against Cathepsin K [3] of 0.7 nM. Moreover, the Ratio IC50 in the series filed under Homo sapiens worked out at 380.
As for `N#CC1(NC(=O)[C@@H]2CCCC[C@H]2c2oc(-c3ccc(F)cc3)nc2-c2ccc(N3CCS(=O)(=O)CC3)cc2)CC1`, the bioavailability was determined as 33% in [4], 38% in series [5] and 55% in [21]. Moreover, in [6], the “Cp(f)” value stood at 190 nM. Moreover, in the series with Canis familiaris [7], the inhibition in vivo at 15 mg/kg amounted to 91.4%. Further, the clearance in series [8] amounted to 3.1 mL/min/kg; in series [10] it was 13 mL/min/kg; in [15], 18.5 mL/min/kg. Further, the values for the half-life in series [9], in [14] and in [23] were 4.1 h, 1.5 h and 2.3 h, respectively. For the same molecule, the Ratio IC50 is > 20000 in series [11]; > 20000 in series [20]; 1460 in the series listed under Homo sapiens; > 20000 in series [24]; > 20000 in series [25]. The CLint scaled in [2] was < 30 mL/min/kg. Also, the inhibition in vivo at 0.1 mg/kg in the series on Canis familiaris [12] stood at 47.7%. The concentration at 96 h in [13] is 220 nM; in series [18], 3980 nM. Half-maximal inhibition at Cathepsin K [3] (IC50) was put at 0.5 nM. Also, the fraction unbound at 96 h in [16] stood at 0.047. In the series with Canis familiaris [17], the inhibition in vivo at 0.3 mg/kg stood at 81.1%. Further, in the series on Canis familiaris [19], the inhibition in vivo at 0.03 mg/kg was found to be 4.5%. Besides, the “Drug uptake(free)” value in series [22] was found to be 0.21 µM.
On to `N#CC1(NC(=O)[C@@H]2CCCC[C@H]2c2nn(CC3CC3)cc2-c2ccc(N3CCS(=O)(=O)CC3)cc2)CC1`, for which, on Cathepsin K [3], the half-maximal inhibitory concentration (IC50) is 5.3 nM. Moreover, in the series filed under Homo sapiens, the Ratio IC50 came to 1180.
`N#CC1(NC(=O)[C@@H]2CC(Cl)(Cl)CC[C@H]2c2nn(CC(F)(F)F)cc2-c2ccc(C(=O)N3CCOCC3)cc2)CC1` displayed an IC50 against Cathepsin K [1] of 1 nM. In addition, the Ratio IC50 in the series listed under Homo sapiens was 246.
Taken in the same sequence, the figures for `N#CC1(NC(=O)[C@@H]2CC(F)(F)CC[C@H]2c2nn(CC(F)(F)F)cc2-c2ccc(-c3ncco3)cc2)CC1` were 1 nM and 62.
On to `COc1cccc(-n2cc(-c3ccc(N4CCS(=O)(=O)CC4)cc3)c([C@@H]3CCCC[C@H]3C(=O)NC3(C#N)CC3)n2)c1`, for which, in series [2], the CLint scaled stood at 244 mL/min/kg. The same molecule came in with a half-inhibitory concentration (IC50) against Cathepsin K [3] of 0.7 nM. Further, in the series listed under Homo sapiens, the Ratio IC50 was 716.
In turn, `N#CC1(NC(=O)[C@@H]2CCCC[C@H]2c2nn(CC(F)(F)F)cc2-c2ccc(N3CCS(=O)(=O)CC3)cc2)CC1` yielded an IC50 on Cathepsin K [3] of 6.9 nM. The Ratio IC50 in the series listed under Homo sapiens turned out to be 1280.
For the molecule `CS(=O)(=O)c1ccc(-c2cn(CC(F)(F)F)nc2[C@@H]2CCC(Cl)(Cl)C[C@H]2C(=O)NC2(C#N)CC2)cc1`, the Ratio IC50 was found to be 1360 in [11]; 5560 in series [20]; 40 in the series listed under Homo sapiens; 714 in series [24]; 1710 in series [25]. Further, the IC50 against Cathepsin K [3] was 1.8 nM.
`N#CC1(NC(=O)[C@@H]2CCCC[C@H]2c2nn(-c3ccc(F)cc3)cc2-c2ccc(N3CCS(=O)(=O)CC3)cc2)CC1`: in series [2], the CLint scaled came out at 40.5 mL/min/kg. Also, the IC50 at Cathepsin K [3] was 0.5 nM. The Ratio IC50 in the series filed under Homo sapiens was determined as 1000.
For `N#CC1(NC(=O)[C@@H]2CC(Cl)(Cl)CC[C@H]2c2nn(CC(F)(F)F)cc2-c2ccc(N3CCS(=O)(=O)CC3)cc2)CC1`, the IC50 at Cathepsin K [1] came out at 0.5 nM. The Ratio IC50 in the series filed under Homo sapiens came to 314.
